Reference: ChEMBL document CHEMBL1255512, “Pyrazolo[1,5-a]pyrimidine acetamides: 4-Phenyl alkyl ether derivatives as potent ligands for the 18 kDa translocator protein (TSPO)” (Bioorg Med Chem Lett, 2010)
pKi: −log10 of the molar value.

Assay: Displacement of [3H]Ro151788 from CBR in rat […]
Type: tissue-based

SMILES | pKi
CCN(CC)C(=O)Cc1c(-c2ccc(OCCF)cc2)nn2c(C)cc(C)nc12 [DPA-714] | < 5.00
CCN(CC)C(=O)Cc1c(-c2ccc(OC)cc2)nn2c(C)cc(C)nc12 | < 5.00
CCC(C)N(C)C(=O)c1cc2ccccc2c(-c2ccccc2Cl)n1 (stereo not drawn) [PK-11195] | < 5.00
